Ki, Kinact and Activity data for 3 compounds are collected here from ChEMBL document CHEMBL4229409, “Rational design of novel irreversible inhibitors for human arginase” (Bioorg Med Chem, 2018).

Active and inactive are the calls of the source. The calls are words filed in the database; no cut-off is given here.

In one test the target is T1, Arginase-1 (Homo sapiens, UniProt P05089).
T1 sequence (P05089 whole entry): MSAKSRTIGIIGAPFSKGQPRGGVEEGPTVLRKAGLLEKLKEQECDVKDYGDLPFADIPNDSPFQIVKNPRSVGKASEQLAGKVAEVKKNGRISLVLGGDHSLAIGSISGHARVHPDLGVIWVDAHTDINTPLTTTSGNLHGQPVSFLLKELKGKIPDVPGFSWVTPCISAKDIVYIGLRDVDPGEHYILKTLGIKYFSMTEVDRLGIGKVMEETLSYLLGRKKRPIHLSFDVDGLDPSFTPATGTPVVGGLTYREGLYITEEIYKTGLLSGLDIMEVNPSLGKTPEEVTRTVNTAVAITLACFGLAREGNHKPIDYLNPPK
As to the kind of experiment: Irreversible inhibition of human arginase 1 using thioarginine as substrate measured up to 360 mins by UV micro plate method.

Test [1] deals with T2, Arginase-1 (Homo sapiens) (UniProt P05089).
T2 sequence (whole entry): T1 sequence (P05089 whole entry)
As to the kind of experiment: Irreversible inhibition of human arginase 1 assessed as inactivation rate constant using thioarginine as substrate measured up to 360 mins by UV micro plate method.

For test [2], the target named is T3, Arginase-2, mitochondrial (Homo sapiens, UniProt P78540).
T3 sequence (P78540 whole entry): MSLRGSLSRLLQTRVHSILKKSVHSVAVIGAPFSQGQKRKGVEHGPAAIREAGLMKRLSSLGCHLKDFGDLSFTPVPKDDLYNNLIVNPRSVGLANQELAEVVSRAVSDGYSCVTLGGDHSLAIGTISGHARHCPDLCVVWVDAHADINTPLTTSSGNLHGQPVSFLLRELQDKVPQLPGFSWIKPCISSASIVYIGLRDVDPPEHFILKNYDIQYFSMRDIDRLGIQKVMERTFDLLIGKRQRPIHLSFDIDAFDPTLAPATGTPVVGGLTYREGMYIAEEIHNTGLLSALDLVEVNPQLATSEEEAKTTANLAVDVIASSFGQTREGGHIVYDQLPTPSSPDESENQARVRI
As to the kind of experiment: Irreversible inhibition of human arginase 2 using thioarginine as substrate measured up to 360 mins by UV micro plate method.

Test [3] has as its target T4, Arginase-2, mitochondrial (Homo sapiens) (UniProt P78540).
T4 sequence (whole entry): T3 sequence (P78540 whole entry)
As to the kind of experiment: Irreversible inhibition of human arginase 2 assessed as inactivation rate constant using thioarginine as substrate measured up to 360 mins by UV micro plate method.

Test [4] can be described thus: Reversible inhibition of human arginase using thioarginine as substrate measured up to 360 mins by UV micro plate method.
Test [5] has as its target T2, Arginase-1 (Homo sapiens). As to the kind of experiment: Binding affinity to human arginase 1 at Thr135 residues preincubated with compound at 500 uM followed by chymotrypsin addition measured after 16 hrs by tandem mass spectrometric method.

On to `CC(=O)OC(C(=O)O)c1ccc(NC(=N)N)cc1` (stereo not given), for which the Ki on Arginase-1 turned out to be 382 µM; in test [2] it was 437 µM. In addition, the Kinact in test [1] was 0.032 min⁻¹; in test [3], 0.033 min⁻¹.

`N[C@@H](CSCCB(O)O)C(=O)O`: the Ki in test [4] stood at 20 µM.

As for `N=C(N)Nc1ccc(C(F)C(=O)O)cc1` (stereo not given), the Ki at Arginase-1 was 275 to 307 µM; in test [2], 322 µM. For the same compound, the Kinact in test [1] is 0.029 to 0.031 min⁻¹; in test [3], 0.048 min⁻¹. For the same compound, in test [5], the outcome was Active.
